Read-outs that look alike come from different tables or passages of the source.
Tests used:
[1] = Parallel artificial membrane permeability assay (PAMPA); format: in vitro ADME; settings: pH 7.4, 18 h, room temperature, read-out: permeation through artificial membrane (PAMPA)
Protocol: Eurycomanone was added to Pion buffer (Pion Inc., Billerica, MA, USA) pH 7.4 to make a 10 µM working solution. Five microlitres of the lipid mix was applied on the membrane and allowed to dry for 10 min. The working solution (200 µL) was added to the donor plate and Pion buffer (200 µL) were added to the receiver plate. The plate was kept in a moist chamber and left for 18 h at room temperature. The solution from both the donor and receiver plate and the working solution was analysed using LC-MS/MS. This test was carried out in triplicates using propranolol, atenolol, and carbamazepine as standards. The test concentration for eurycomanone is […].

[2] = Pharmacokinetics of eurycomanone in mice (intravenous and oral); format: in vivo, CD-1 mice; settings: plasma; for AUC(0-t): read-out: AUC0–8
Text: The ethical approval for the animal experiments conducted in India was granted from the Animal Ethics Committee, Aurigene Discovery Technologies, Bangalore, India. Eight male Wistar rats (12 weeks old; weighing 250–350 g) and eight Caeserean Derived-1 (CD-1) mice (weighing 20–30 g) were obtained from the Animal House, Aurigene Discovery Technologies, Bangalore, India. They were supplied with standard rodent diets and drinking water ad libitum. Each rodent species (i.e., rats and mice) were divided into two groups. One group (n = 3 for each rodent species) was administered with eurycomanone via the intravenous route (IV) and another group (n = 3 for each rodent species) via the oral route (PO) using oral gavage intubation needle. Two animals of each of the species were used as a control and they received reverse osmosis water. All rats underwent jugular vein cannulation surgery 72 h prior to the administration of the eurycomanone.
Eurycomanone (rats: 1.5 mg/mL for IV route and 3.0 mg/mL for PO route; mice: 0.5 mg/mL for IV route and 1.0 mg/mL for PO route) samples were prepared fresh on the day of dosing. For the IV administration, eurycomanone was dissolved in 3% NMP and 97% of 10% HPCD in saline. For the oral administration, eurycomanone was dissolved in 3% NMP and 97% of 30% HPCD in saline. Both samples were sonicated before use. The SWE (5 mg/mL for IV route, 10 mg/mL for PO route) was prepared fresh on the day of dosing. For the IV administration, the SWE was dissolved in reverse osmosis water and filtered (0.2 µm pore size) before administration. The SWE for the PO administration was prepared using the same method, except without filtering. The animals were not fasted and doses given were based on the body weights prior to dosing.
Blood specimens (approximately 0.30–0.40 mL via the jugular vein cannula for rats and 0.10–0.20 mL via submanibular bleeding for mice) were collected at time points 0.083 (IV group only), 0.25, 0.5, 1, 2, 4, 6, and 8 h post-dosing with eurycomanone. At the experiment end point, the animals were euthanized by excess isoflurane inhalation followed by cervical dislocation. In the experiment using SWE, the rats were placed in metabolic cages (Techniplast, West Chester, PA, USA) and blood (approximately 0.30–0.40 mL collected via the jugular vein cannula), urine, and faeces specimens were collected at the same time points with the above plus one additional time point of 24 h. Kidney and liver specimens were collected at necropsy, where the rats were euthanized by CO2 inhalation followed by cervical dislocation. All blood specimens were centrifuged (10,000 rpm, 10 min) to obtain plasma and were stored at −80 °C until processed. Urine and faeces specimens were collected into plastic containers on wet ice while the organ specimens were snap-frozen in liquid nitrogen and maintained at −80 °C until processed.
Plasma specimens (100 µL), collected from the eurycomanone experiment were added with the internal standard solution (10 µL). Plasma proteins were precipitated with ACN (300 µL), vortex-mixed for 5 min, and centrifuged at 4000 rpm for 7 min. The supernatant was collected and evaporated using a nitrogen evaporator for 20 min at 50 °C. Thereafter, they were reconstituted with the mobile phase (500 µL) and transferred into LC-MS vials for analysis.
Eurycomanone detection in the pure eurycomanone experiments was done via the LC-MS/MS system consisting of an Agilent 1260 Infinity HPLC system and an AB SCIEX API 4000™ Triple-Quadrupole mass spectrometer equipped with TurboIonSpray® probe and atmospheric pressure chemical ionization (APCI) (AB Sciex LLC, Framingham, MA, USA). Electrospray ionization (ESI) was performed in positive ion mode. The analytical column was Agilent Zorbax Eclipse-C18 (4.6 mm I.D. × 150 mm, 3.5 µm). The mobile phase consisted of 0.1% formic acid (solvent A) and 90% ACN with 0.1% formic acid (solvent B). […]

Plasma stability, monkey = format: in vitro ADME; settings: 5 µM, 37 °C, up to 4 h, compared with human, rat and dog plasma
Protocol: The plasma stability was estimated by preparing 5 µM of eurycomanone in 600 µL plasma in triplicates. The plasma stability of eurycomanone was determined in five types of plasma (mice, rat, dog, monkey, and human). The reaction was kept at 37 °C and ACN (100 µL) was added at timepoints 0, 30 min, and 1, 2, and 4 h to the reaction mixture (100 µL). The supernatant (10,000 rpm, 10 min, 4 °C) was collected and analysed by LC-MS/MS. The standards (propantheline bromide and enalapril) were analysed in triplicates.

[3] = Liver microsome metabolic stability, rat; format: in vitro ADME; settings: rat liver microsomes
Protocol: The liver microsome stability assay of eurycomanone was estimated using phase I and phase II enzymes in five types of microsomes (mice, rat, dog, monkey, and human). Eurycomanone at 1 mM (20 µL), microsomes at 0.3 mg/mL (20 µL), and 10 mg/mL of alamethicin in 1:1 DMSO and methanol (20 µL) were preincubated at 37 °C for 10 min. The cofactor, 5 mM UDPGA (20 µL), and 1 mM NADPH (20 µL) were added to make the final assay volume of 100 µL. At timepoints 0, 15, 30, 45, 60, and 90 min, […] of the reaction mixture is taken out and added to the stop solution. The supernatants (10,000 rpm, 10 min, 4 °C) were collected and analysed using LC-MS/MS. The standards used for mice and rat liver microsomes were propranolol and dasatinib. The standards used with the dog and monkey liver microsomes were propranolol and midazolam, while the standards used with the human liver microsomes were propranolol and terfinadine.

[4] = Rat liver hepatocyte stability; format: in vitro ADME; settings: rat liver hepatocytes
[5] = read-out: Intrinsic clearance (Clint)

With `C=C1[C@@H](O)[C@]2(O)OC[C@]34[C@H]2[C@@]2(C)[C@H](O)C(=O)C=C(C)[C@@H]2C[C@H]3OC(=O)[C@H](O)[C@@]14O` [Eurycomanone] the Papp at 18 h, 25 µM [1] was 0.78 ×10⁻⁶ cm/s, the “Observed Cmax” value ([2]; 10 mg/kg oral, 10 mg/kg) was 334.7 ng/mL and the AUC(0-t) ([2]; CD-1, mouse, 1 mg/kg intravenous) was 221 ng·h/mL. The AUC(0-t) ([2]; CD-1, mouse, 10 mg/kg oral) was 1210 ng·h/mL, the half-life ([2]; CD-1, mouse, 1 mg/kg intravenous, read-out: Half-life (t1/2) (converted)) was 0.3 h and the clearance ([2]; CD-1, mouse, 1 mg/kg intravenous, read-out: Plasma Clearance (CL) (converted)) was 64.2 mL/min/kg. The Vd ([2]; CD-1, mouse, 1 mg/kg intravenous, read-out: Volume of Distribution at Steady State (Vss)) was 1.51 L/kg, the bioavailability ([2]; CD-1, mouse, 10 mg/kg oral vs 1 mg/kg intravenous, read-out: Bioavailability (F)) was 54.9% and the Tmax ([2]; CD-1, mouse, 10 mg/kg oral, read-out: Observed Tmax) was 2 h. The Cmax ([2]; CD-1, mouse, po, 10 mg/kg, 10 mg/kg oral, read-out: Observed Cmax) was 335 ng/mL, the plasma stability (Plasma stability, monkey) was “slightly lower” and the “Half-life (t1/2)” value [3] was over 1.5 h. The half-life at 200 µM [3] was over 1.5 h, the CLint scaled at 200 µM [3, 5] was 83.2 mL/min/kg and the “Half-life (t1/2)” value [4] was over 1.5 h. The half-life [4] was over 1.5 h and the hepatocyte CLint [4, 5] was 0.67 µL/min/1e6 cells.
